Several values for one entry are separate records, joined by “and”; a condition that tells them apart may be missing. Equal values may be shown once.
Key:
Assay type in all cases: in vivo
Canada thistle = assay: Pre-emergent herbicidal activity (Table A); settings: Cirsium arvense, pre-emergence, Cath, 11.2 kg/ha, 10-14 days, read-out: herbicidal rating (% inhibition)
Outline: (§1)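 Seeds or vegetative propagules were set on topsoil compacted to 0.95 to 1.27 cm below the pan rim, then covered with soil thoroughly mixed with a known amount of test compound in acetone or water carrier. Ratings follow a scale of percent inhibition per species.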

Common Lambsquarters = assay: Pre-emergent herbicidal activity (Table A); settings: Chenopodium album, pre-emergence, Colq, 11.2 kg/ha, 10-14 days, read-out: herbicidal rating (% inhibition)
Outline: as §1

Pennsylvania Smartweed = assay: Pre-emergent herbicidal activity (Table A); settings: pre-emergence, Pesw, 11.2 kg/ha, 10-14 days, read-out: herbicidal rating (% inhibition)
Outline: as §1

Quackgrass = assay: Pre-emergent herbicidal activity (Table A); settings: pre-emergence, Rhqg, 11.2 kg/ha, 10-14 days, read-out: herbicidal rating (% inhibition)
Outline: as §1

Rhizome Johnsongrass = assay: Pre-emergent herbicidal activity (Table A); settings: Sorghum halepense, pre-emergence, Rhjg, 11.2 kg/ha, 10-14 days, read-out: herbicidal rating (% inhibition)
Outline: as §1

Wibw = assay: plant injury after spraying emerged plants (Table D); parameters: scale not given here
Outline: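 Seeds or perennial propagules were pressed onto steam-sterilized sieved silt loam topsoil and covered with 1.27 cm of a 50:50 topsoil and peat moss/vermiculite/wetting agent mix. Pans were kept on a greenhouse bench over capillary mat and subirrigated as needed.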

Colq = assay: as above; parameters: scale not given here
Excerpt: (§2) Topsoil (silt loam) is sieved through a screen having 1.27 cm openings. In some of the tests the soil was mixed with fertilizer (1225 g/cu. m of 12/5/9 containing isobutylidene diurea), while in other tests the fertilizer was omitted. This mixture is steam sterilized and then placed in aluminum pans 6.985 cm deep having ten holes in the bottom each 0.635 cm in diameter. The soil mixture is compacted to a depth of 1.27 cm. from the top of the pan. A predetermined number of seeds of each of several dicotyledonous and monocotyledonous annual plant species and/or vegetative propagules for the perennial plant species are placed on the soil and pressed into the soil surface. The seeds and/or vegetative propagules are covered with 1.27 cm of a mixture of 50% topsoil and 50% of a mixture of Canadian sphagnum peat moss, vermiculite and a wetting agent. The pans are then placed on a capillary mat on a greenhouse bench and subirrigated as needed. After the plants reach the desired stage (9 to 14 days, 1 to 3 true leaf stage), each pan (except the control pans) is removed to a spraying chamber and sprayed by means of an atomizer, operating at a spray pressure of 170.3 kPa ([…]) at the application rates noted in Table D. In the spray solution is an amount of an emulsifying agent mixture (35% butylamine salt of dodecylbenzenesulfonic acid and 65% tall oil condensed with ethylene oxide in the ratio of 11 mols of ethylene oxide/mol of tall oil) to give a spray solution or suspension. The spray solution or suspension contains a sufficient amount of the candidate chemical in order to give application rates of the active ingredient corresponding to those shown in Table D below while applying a total amount of solution or suspension equivalent to 1870 L/Ha (200 gallons/acre). The pans are returned to the greenhouse and watered as before and the injury to the plants as compared to the control pans is observed at approximately 10-14 days (usually 11 days).
(§3) In the following Table D the legends used to identify the plant species are the same as those used in the preceding Table B.

Pesw = assay: as above; parameters: scale not given here
Excerpt: as §2, §3

Sube = assay: as above; parameters: scale not given here
Excerpt: as §2, §3

Compound | inhibition at 11200 g/ha (Canada thistle) | inhibition at 11200 g/ha (Common Lambsquarters) | inhibition at 11200 g/ha (Pennsylvania Smartweed) | inhibition at 11200 g/ha (Quackgrass) | inhibition at 11200 g/ha (Rhizome Johnsongrass) | plant injury rating, Wibw (Wibw; 0.0701 kg/ha) | plant injury rating, Wibw (Wibw; 0.2803 kg/ha) | plant injury rating, Wibw (Wibw; 1.1210 kg/ha) | plant injury rating, Wibw (Wibw; 5.6050 kg/ha) | plant injury rating, Colq (Colq; 1.1210 kg/ha) | plant injury rating, Colq (Colq; 2.8025 kg/ha) | plant injury rating, Colq (Colq; 5.6050 kg/ha) | plant injury rating, Colq (Colq; 11.2100 kg/ha) | plant injury rating, Pesw (Pesw; 1.1210 kg/ha) | plant injury rating, Pesw (Pesw; 2.8025 kg/ha) | plant injury rating, Pesw (Pesw; 5.6050 kg/ha) | plant injury rating, Pesw (Pesw; 11.2100 kg/ha) | plant injury rating, Sube (Sube; 1.1210 kg/ha) | plant injury rating, Sube (Sube; 2.8025 kg/ha) | plant injury rating, Sube (Sube; 5.6050 kg/ha) | other results
COC(=O)c1c(O)nc(C(F)(F)F)c(C(=O)OC)c1CC(C)C [Compound 1, 3,5-pyridinedicarboxylic acid, 2-hydroxy-4-(2-methylpropyl)-6-(trifluoromethyl)-, dimethyl ester] | 0 to 24% | 0 to 24% | 0 to 24% | 0 to 24% | 0 to 24% | 0 | 1 | 2 | – | – | – | – | – | – | – | – | – | – | – | – | –
COC(=O)c1c(OC)nc(C(F)(F)Cl)c(C(=O)OC)c1CC(C)C [Compound 30, 3,5-pyridinedicarboxylic acid, 2-(chlorodifluoromethyl)-6-methoxy-4-(2-methylpropyl)-, dimethyl ester] | 75 to 100% | 75 to 100% | 75 to 100% | 75 to 100% | 75 to 100% | – | – | 1 | 1 | 0 | 1 | 1 | 2 | 0 | 1 | 1 | 1 | 1 | 1 | 1 | plant injury rating, Wibw (Wibw; 0.5605 kg/ha): 1; plant injury rating, Wibw (Wibw; 2.8025 kg/ha): 1; plant injury rating, Wibw (Wibw; 8.4075 kg/ha): 1; plant injury rating, Wibw (Wibw; 11.2100 kg/ha): 2; plant injury rating, Colq (Colq; 0.5605 kg/ha): 0; plant injury rating, Colq (Colq; 8.4075 kg/ha): 1; plant injury rating, Pesw (Pesw; 0.5605 kg/ha): 0; plant injury rating, Pesw (Pesw; 8.4075 kg/ha): 1; plant injury rating, Sube (Sube; 0.5605 kg/ha): 0; plant injury rating, Sube (Sube; 8.4075 kg/ha): 1; plant injury rating, Sube (Sube; 11.2100 kg/ha): 1
COC(=O)c1c(OC)nc(C(F)(F)F)c(C2=NCCS2)c1CC(C)C [Compound 50, 3-pyridinecarboxylic acid, 5-(4,5-dihydro-2-thiazolyl)-2-methoxy-4-(2-methylpropyl)-6-(trifluoromethyl)-, methyl ester] | 75 to 100% | 75 to 100% | 75 to 100% | 75 to 100% | 75 to 100% | 1 | 3 | – | – | – | – | – | – | – | – | – | – | – | – | – | plant injury rating, Wibw (Wibw; 5.3808 kg/ha): 3
COC(=O)c1c(OC)nc(C(F)(F)F)c(N=CSC)c1CC(C)C [Compound 77, 3-pyridinecarboxylic acid, 2-methoxy-4-(2-methylpropyl)-5-[[(methylthio)methylene]amino]-6-(trifluoromethyl)-, methyl ester] | 75 to 100% | 75 to 100% | 75 to 100% | 75 to 100% | 75 to 100% | – | – | – | – | 3 and 2 | 3 and 2 | 2 and 3 | 2 and 3 | 0 | 0 | 0 | 2 and 1 | 1 | 2 | 2 and 1 | plant injury rating, Sube (Sube; 11.2100 kg/ha): 2
COC(=O)c1c(OC)nc(C(F)(F)F)c(C2SCCS2)c1CC(C)C [Compound 93, 3-pyridinecarboxylic acid, 5-(1,3-dithiolan-2-yl)-2-methoxy-4-(2-methylpropyl)-6-(trifluoromethyl)-, methyl ester] | – | – | – | – | – | 0 | 0 | 0 | 0 | – | – | – | – | – | – | – | – | – | – | – | –
COC(=O)c1c(OC)nc(C(F)(F)F)c(C(=O)NCCCBr)c1CC(C)C [Compound 97, 3-pyridinecarboxylic acid, 5-[[(3-bromopropyl)amino)carbonyl]-2-methoxy-4-(2-methylpropyl)-6-(trifluoromethyl)-, methyl ester] | – | – | – | – | – | 0 | 0 | 0 | 0 | – | – | – | – | – | – | – | – | – | – | – | –
